The text below walks through data of publication PMC7252647, “Inhibition of the NAD salvage pathway in schistosomes impairs metabolism, reproduction, and parasite survival” (PLoS Pathogens, 2020).

The subject of this test is T1, native SmNACE.
T1 construct: native ectoenzyme on the outer tegument of live adult worms (2 male + 2 female per well)
Kind of test: fluorimetric NAD glycohydrolase assay on live adult worms, ε-ADPR release. The test is classed as cell-based, Schistosoma mansoni. The settings on record: ε-NAD substrate (20 μM in the assay), live worms (2 male + 2 female) in 200 μl HBSS, 37 °C. The source says: fluorimetric NAD glycohydrolase assay on live adult worms, ε-ADPR release on native SmNACE | The IC50 of CMP1 on live parasites is indicated.

pIC50: −log10 of the molar value.

Consider `Cc1occc1C(=O)N/N=C\c1ccc(O)c(O)c1` [CMP1, (Z)-N′-(3,4-Dihydroxybenzylidene)-2-methylfuran-3-carbohydrazide], for which the negative-log IC50 (pIC50) – broadly, the IC50 on a negative log10 scale, so that one unit is a factor of ten – was 4.11.
